The text below walks through data of US6600012B1, “Lipid-modified muc-1 derivatives” (Biomira, Inc., priority 1997, dated 2003).

The test system of experiment [1] is T cells stimulated with autologous PBLs loaded with liposomes containing BLP-25. The experiment in a line: Cytokine ELISA of supernatant of microtiter wells in the proliferation assay. Format: cell-based, human. The note with it: soluble peptide, 100 ug; T cells pre-stimulated with BLP-25 liposomes 100 ug; 6th day of culture. The protocol:
T-Cell Proliferation Assay T-cells (5×10^4-1×10^5) obtained at the end of 14-16 days of culture, as described above, were incubated in the presence of various antigen-containing liposomes, soluble BP24, soluble BLP-24M, loaded or unloaded autologous liposomes, and mitomycin C treated APCs (5×10^4-10^5), in a total volume of 200 μL in AIM-V medium, in 96-well flat-bottom tissue culture plates—for a period of 5 days at 37° C., 7% CO2 and moisture. Each group was cultured in 5 replicate wells. At the end of 5 days, 100 μL of culture supernatant was collected from each well and tested for the presence of γ-IFN or IL-4 by ELISA, as described below. After collecting the supernatant for cytokines, 1 μCi^3H-Tdr (Amersham Canada Limited, Oaksville, Ontario) was added into each well and incubated overnight. Incorporation of ^3H-Tdr into DNA of proliferating cells was measured after harvesting the plates and counting in the matrix beta counter. […]
For the γ-IFN assay, 96-well Nunc ELISA plates were coated overnight at 4° C. with mouse anti-human γ-IFN monoclonal antibody (Genzyme, Cambridge, Mass.) in NaHCO3 buffer (0.1 M, pH 9.5). […] At this time, the plates were read in the ELISA reader (Molecular Devices Corporation, Menlo Park, Calif.) in kinetic mode [Molecular Thermomax dual wavelength (405-490 nm)]. […]
In general terms: ELISA stands for enzyme-linked immunosorbent assay.

Experiment [2] deals with T-cells from PBLs of normal donors. The experiment can be described thus: T-cell proliferation assay (3H-Tdr incorporation) of T-cells stimulated twice with liposomal antigen loaded autologous APCs. The class given is cell-based, human. The note with it: T-cells stimulated twice in two weeks with BLP-25 liposome loaded autologous PBLs; antigen presented on autologous APCs. As for the experimental part:
T-cell Culture in Bulk For T-cell enrichment, 30-50×10^6 PBLs were suspended in 1 mL AIM-V media and loaded on media pre-conditioned 5 mL nylon wool columns (Robins Scientific, Sunnyvale, Calif.). The loaded nylon wool columns were incubated at 37° C. for 45 minutes and then the non-adhering T-cells were eluted by washing with warm (37° C.) AIM-V media. Initially, the bulk culture was started in a 25 cm^2 tissue culture sterile flask (Corning Glass, Corning, N.Y.). 10^7 T-cells were cultured in the presence of 10^7 antigen loaded, gamma-irradiated autologous PBLs in a total volume of 10 mL in AIM-V media for 16-24 hours, at which time the culture was fed with human rIL-7 (10 μg/mL) and human rIL-12 (100 pg/ml), and left for 6-8 more days. At the end of the 7-10 days of culture, surviving t-cells were collected and re-stimulated with autologous APCs loaded with liposomal antigen. After two consecutive cycles of re-stimulation (14-16 days), the T-cells were collected, and counted. The supernatant was collected from bulk cultures at 14 days for cytokine screening and kept frozen at −80° C. until used for the assay. Repeated freeze/thaw was prevented. […] Incorporation of ^3H-Tdr into DNA of proliferating cells was measured after harvesting the plates and counting in the matrix beta counter. […]

A further experiment has as its system MAb BCP8. The experiment in a line: Competitive inhibition of binding of MAb BCP8 to class I MHC isolated MUC-1 peptides (ELISA). The note with it: synthetic peptide 0-10 μM; MCF-7 derived fraction (FIG. 9). The protocol: Competitive inhibition of binding of MAb BCP8 to class I MHC isolated putative MUC-1 peptide motifs by synthetic MUC-1 peptides. To show the specificity of binding of the BCP8 antibody to the peptides isolated from MCF-7, a fraction eluting at 19 min after secondary HPLC was diluted ⅙ with PBS and coated on microtiter wells overnight, then blocked as described above. The wells were incubated with 2 ng of BCP8 in 100 μl ELISA diluent, containing also amounts of peptide varying from 0-10 μM. Peptides used in this experiment were the 9 mers (SEQ ID NO: 3), […] and […] (SEQ ID NO: 17), and the 16 mer (SEQ ID NO: 15) […]. The ELISA was then processed as described above.

Experiment [3] deals with T1, HLA.A2 on T2 mutant cells (Homo sapiens, UniProt P04439, D140Y/D185E/D98H/E176V/E277Q/G131W/G231S/I119V/I121R/I166T/I218V/L300P/L318F/N151K/N90K/P208A/P217A/Q86G/Q94H/R138H/R169H/T345S). The experiment can be described thus: T2 feeding experiment and FACS analysis (HLA.A2 upregulation, MA2.1 staining), Example 2. The class given is cell-based. For orientation: In flow cytometry, cells or beads pass a laser one at a time.

Experiment [4] concerns T2 cells loaded with MUC-1 synthetic peptides. The experiment in a line: Cytotoxic T lymphocyte assay (51Cr release) against peptide loaded T2 targets, Example 2. Format: cell-based, human. The note with it: T-cells of three HLA.A2+ donors primed with liposomal 25 aa MUC-1 lipopeptide, 5 h 51Cr release, peptide 200 μM. As for the experimental part: Cytotoxic T lymphocyte assays. For the CTL assay, three (HLA.A2^+) normal donors' PBLs were used. The T-cells were grown for two weeks in bulk cultures as described above. At the end of two weeks, live T-cells were harvested from flasks and counted. T2 cells used as CTL targets were loaded overnight with various MUC-1 synthetic peptides at 200 μM in presence of exogenous β2m. Houbiers et al., Eur. J. Immunol 23:2072-2077 (1993); Stauss et al., Proc. Natl. Acad. Sci. U.S.A. 89:7871-7875 (1992). These peptide loaded T2 target cells were then loaded with ^51Cr (using NaCrO4) for 90 min and washed extensively. CTL assays were performed as previously described. Agrawal et al., supra. Percent specific killing was calculated as: experimental release—spontaneous release/maximum release—spontaneous release×100. The effector versus target ratio was used as (1, 10, 50, 100 and 150). Each group was set up in four replicate and mean percent specific killing was calculated. As negative control OVA peptide […] loaded target T2 cells were used in the cytotoxic assay and percent specific killing of […] loaded targets was subtracted from each data point to obtain MUC-1 peptide specific percent specific killing.
We performed in vitro CTL assays in order to determine whether the MUC-1 peptides shown to be capable of binding to HLA.A2 on T2 mutant cells can be recognized as CTL epitopes in the context of MHC class I HLA.A2 molecules on target cells. T-cells from PBLs of three HLA.A2^+ donors were primed in vitro against MUC-1 antigen using a lipopeptide derivative of 25 amino acid MUC-1 peptide encapsulated in liposome pulsed autologous PBLs as APCs. The stimulated T-cells were harvested following two weeks in vitro culture (with 2 weekly restimulations) and tested for their cytotoxic activity against MUC-1 derived synthetic peptide (9 mers and 7 mer) loaded T2 cells as target in a 5 h ^51Cr release assay (FIG. 6). […] The targets loaded with 7 mer TSA . . . peptide were weakly killed by donor 2 at higher E/T ratios.

The target of experiment [5] is T1, HLA.A2 on T2 mutant cells. The experiment can be described thus: MUC-1 peptide-mediated upregulation of HLA.A2 expression on T2 cells, Example 1. Format: cell-based. The note with it: FIG. 6A. The text has this: FIG. 6A: Upregulation of HLA.A2 expression on T2 mutant cells by MUC-1 peptides […] (SEQ ID NO: 1) and […] (SEQ ID NO: 2). […] was used as a positive control (SEQ ID NO: 1) and H-2Kb (61-69) peptide (SEQ ID NO: 3) was used as negative control for HLA-A2 upregulation. The x-axis represents fluorescence intensity and the y-axis represents the cell number. Markers M1 and M2 were set to visually examine the increase expression of HLA.A2. Mean channel intensity (MCI) is shown in each histogram.
Cytotoxic T lymphocyte assays. For the CTL assay, three (HLA.A2^+) normal donors' PBLs were used. The T-cells were grown for two weeks in bulk cultures as described above. At the end of two weeks, live T-cells were harvested from flasks and counted. The targets were mutant T2 cells. Houbiers et al., Eur. J. Immunol 23:2072-2077 (1993); Stauss et al., Proc. Natl. Acad. Sci. U.S.A. 89:7871-7875 (1992). The MUC-1 peptide-mediated upregulation of HLA.A2 expression on T2 cells was examined using the MUC-1 nine-mer peptides (SEQ ID NO: 25) […] and […] using known methods. Townsend et al., Nature 346:476 (1989). […] Percent specific killing was calculated as: experimental release—spontaneous release/maximum release—spontaneous release×100. […] Each group was set up in four replicate and mean percent specific killing was calculated.

With “DSTSSPVHSGTSSPATSAPEDSTS [BP-24M, mouse MUC-1, 24-amino acid peptide, control]”, in experiment [1], the “IFN-γ (pg/ml) ± S.D.” value is 193 ± 79 pg/mL and the “IL-4 (pg/ml) ± S.D.” value was less than 31.00 pg/mL. The “T-cell proliferative response against the test antigen” value in experiment [2] was “no proliferative T-cell response”.

Consider GVTSAPDTR [MUC-1 tandem repeat 9 mer], for which the “inhibition of binding of BCP8 to the isolated MUC-1 peptides” value with MAb BCP8 is on record as “did not inhibit binding”.

Take SAPDTRPAP [MUC-1 tandem repeat 9 mer]: the “% Change in mean channel intensity” value in experiment [3] (T2 cell assay, HLA.A2 expression (MA2.1 staining)) is recorded as 48%. The “specific killing of T2 targets loaded with the peptide” value (from here on “specific killing of T2 targets loaded”) in experiment [4] is given as “specifically killed to the highest degree”.

As to “SIINFEKL [8-mer ovalbumin (OVA) peptide, negative control in CTL assay, reference compound]”, the “upregulation of HLA.A2 expression on T2 cells” value in experiment [5] is “strongly upregulates HLA.A2 expression”.

Regarding STAPPAHGV, in experiment [5], the “upregulation of HLA.A2 expression on T2 cells” value is “higher upregulation of HLA.A2 expression on T2 cells than did”.

On to “TSAPDTR [MUC-1 7 mer, class I-associated peptide]”, for which the “δMCI, HLA.A2 expression on T2 cell surface” value in experiment [3] (peptide in excess at 50 μM/well) was 2. In addition, the “specific killing of T2 targets loaded” value in experiment [4] was “weakly killed”.

In the case of TSAPDTRPA [MUC-1 tandem repeat 9 mer], the “upregulation of class I expression on T2 cells” value in experiment [3] (FIG. 11 and repeat experiments) is “strong upregulation of class I expression”. Moreover, the “specific killing of T2 targets loaded” value is “performed exceptionally well” in experiment [4] and “specifically killed to the highest degree” in experiment [4] (listed as 9 mers TSA . . .).
